Source: US20190262347A1, “COMPOSITION COMPRISING COMBINATION OF EPICATECHIN AND ANTI-CANCER COMPOUND” (SPHAERA PHARMA PVT. LTD., priority 2016, published 2019)

System: HCT116 induced xenograft
Experiment: 21 days efficacy study in HCT116 induced xenograft model in mice
Type: in vivo
Conditions: 1004 5 mpk, epicatechin 30 mpk
Procedure: Anticancer potential of epicatechin in combination with a PI3K/mTOR inhibitor is evaluated against cancer xenograft model in immunocompromised mice. CD1 nude mice are dosed for a period of 21 days with vehicle control, PI3K/mTOR inhibitor and a combination of PI3K/mTORinhibitor and epicatechin. […] The results are presented at Table 2, Table 3 and FIGS. 1a and 1b.

C[C@H]1COCCN1c1nc(Oc2ccc(C(=O)N(C)C)cc2F)nc(-c2ccc(N)nc2)n1 [Compound 1004, (S)-4-((4-(6-aminopyridin-3-yl)-6-(3-methylmorpholino)-1,3,5-triazin-2-yl)oxy)-3-fluoro-N,N-dimethylbenzamide]
T/C % (Mean), Treated/Control on 21st day (CD1 nude mice, HCT116 xenograft, 21st day, oral): 29%
TGI % (Mean), tumor growth inhibition (CD1 nude mice, HCT116 xenograft, dosed 21 days, oral): 80%
Tumor weight (HCT116 xenograft in mice): 0.72 g
